{"source": "patent US11564913B2", "about": "“Compositions and methods for treating cancer” (Children's Hospital Medical Center, priority 2019, dated 2023)", "key": {"[1]": {"test_system": "MDA-MB-231 cells expressing shVav3", "experiment": "Viability and proliferation, trypan blue exclusion", "assay_type": "cell-based, human", "conditions": "0.1-1 μM", "procedure": "FIG. 16: IODVA1 decreases levels of pVav3 in in vitro and in vivo models of triple negative breast cancer. (A) Immunoblot and quantification of Vav3 protein in lysates of MDA-MB-231 triple negative breast cancer cells stably expressing scrambled or Vav3-targeting shRNAs. Viability of the MDA-MB-231 cells stably expressing shVav3 in the presence of IODVA1 (0-1 μM). Cells were grown in the presence of IODVA1 and counted by trypan blue exclusion at the indicated time points. (B) MDA-MB-231 cells were incubated with IODVA1 (3 μM) for 15 min and the levels of phosphorylated Vav3 (pY173) were assessed by immunoblotting. (C) Immunohistochemical staining of phosphorylated Vav3 in tissue derived from MDA-MB-231 xenografts treated with vehicle control or IODVA1.\nNext, we tested if IODVA1 is effective in another model of Vav3-dependent cancer. We chose MDA-MB-231 triple negative breast cancer cells because these cells express high endogenous levels of Vav3 (Chen, 2015) and because Vav3 is an acknowledged target in breast cancer (Chen, 2015; Lee, 2008; Aguilar, 2014; Citterio, 2012; Lorenzo-Martin. 2019). […] Second, we incubated MDA-MB-231 cells with IODVA1 (3 μM) for 15 min and analyzed the levels of phosphorylated Vav3 (pY173) by immunoblotting. […]"}, "[2]": {"test_system": "Vav3−/− p190-BCR-ABL leukemia", "experiment": "Vav3−/− p190-BCR-ABL leukemic mice, osmotic pumps", "assay_type": "in vivo", "procedure": "FIG. 14: IODVA1 targets Vav3 in vitro and in vivo. (A) Ba/F3 cells expressing empty vector Mieg3 or p190-BCR-ABL1 were treated with vehicle control or IODVA1 (IO1, 3 μM) for 30 min and incubated with GST-Rac and glutathione beads. Beads were washed and the protein complexes were separated on SDS-PAGE and immunoblotted for pVav3. Input Vav3 was used as control. (B) Binding affinity (Kd) between IODVA1 and Vav3 (green), LARG (brown), and RacGDP (blue). […] Error bars=SD; N=3. (C) Quantification of the average number of colonies made by bone marrow wild-type (black) and Vav3^−/− (lilac) p190-BCR-ABL1 leukemic cells treated with vehicle control or IODVA1 (IO1, 1 and 3 μM) (* p≤0.05; ** p≤0.01; *** p≤0.001; ns, not significant). (D) Representative histogram data of the cell cycle analysis of wild-type (black and grey bars) and Vav3^−/− (dark and light lilac) bone marrow cells expressing p190-BCR-ABL and treated with vehicle control or IODVA1 (IO1, 3 μM) for 20 h. (E) Quantification by densitometry of the pVav3 band from FIG. 14A. (F) Kaplan-Meier plot showing survival of wild-type or Vav3^−/− p190-BCR-ABL1 leukemic mice post-treatment with osmotic pumps implanted subcutaneously and carrying vehicle control or IODVA1 (IO1, 1 mM). (G) Count (% leukemic progenitors in peripheral blood) of residual leukemic (EGFP^+-BCR-ABL1) cells at week 1 and 2 post-treatment for mice from (F). […]"}}, "data": [{"smiles": "OC1(c2ccccn2)N=C(Nc2nc3ccccc3[nH]2)N=C1c1ccccn1", "note": "(centres unmarked) [IODVA1, (Z)-2-((1H-benzo[d]imidazol-2-yl)imino)-4,5-di(pyridin-2-yl)-2,5-dihydro-1H-imidazol-5-ol]", "values": [{"measurement": "viability and proliferation", "setting": "[1]", "value": "no effect"}, {"measurement": "response (survival) of Vav3−/− leukemic mice", "setting": "[2]", "value": "did not respond"}]}]}
